In article PMC9861386, “N-Heterocyclic Carbene-Iridium Complexes as Photosensitizers for In Vitro Photodynamic Therapy to Trigger Non-Apoptotic Cell Death in Cancer Cells” (Molecules, 2023):
Like-named read-outs stand apart in the source and are kept apart here. Where a SMILES comes first, the peptide text is derived from it. The star is where a group is joined. Cbz = O=C(OCc1ccccc1)*; CH2F = FC*

Columns and labels:
NIH3T3 = assay: MTT cytotoxicity, 48 h; assay type: cell-based, murine
Procedure: (§1) The in vitro cytotoxicity of iridium(III) complexes 4a–4g was first evaluated against cancer cell lines PC-3 (human prostate) and T24 (human bladder) and the non-cancerous NIH-3T3 cell line (murine fibroblasts) using colorimetric MTT tests after 48 h of treatment. The dimeric iridium precursor [IrCl(ppy)2]2 was used as reference and the results are summarized in Table S1 (Supplementary Materials) in the supporting information file. […] The complexes were also evaluated for their cytotoxicity towards healthy NIH-3T3 cells, giving access to the selectivity index (SI). […] No linear correlation between lipophilicity and anti-cancer activity was found for the iridium(III) complexes 4a–4g. For the following biological studies, we focused on the C1 series.
(§2) Table S1. Cytotoxic activity of iridium(III) NHC complexes 4a−4g expressed as GI50 (μM) values towards selected cancer and normal cell lines as determined by MTT assay (48 h).a Complex PC-3 T24 NIH3T3 SI (PC-3) SI (T24) […]
(§3) a GI50 values correspond to the concentration of complexes causing 50 % inhibition of cell growth.
(§4) Data were obtained from three independent experiments.
(§5) The cytotoxic effects of the NHC precursors, the imidazolium salts, which represents the potential hydrolysis and/or degradation products of the complexes, have been published before [SI-1, SI-2]. […]

PC-3 = assay: MTT cytotoxicity, 48 h; assay type: cell-based, human; settings: for GI50: MTT; for SI (PC-3): NIH3T3 vs PC-3
Procedure: as §1, §2, §3, §4, §5

T24 = assay: MTT cytotoxicity, 48 h; assay type: cell-based, human; settings: for GI50: MTT; for SI (T24): NIH3T3 vs T24
Procedure: as §1, §2, §3, §4, §5

[1] = Octanol–water partition coefficient, shake-flask method; assay type: physicochemical; settings: n-octanol/water, UV absorbance 260 nm
Procedure: Lipophilicities of all complexes have been measured by the classical shake-flask method, using UV absorption. The Log p values range from -0.063 to 0.861 in increasing order –0.063 (4a), 0.035 (4d), 0.519 (4f), 0.581 (4c), 0.842 (4b), 0.847 (4e) and 0.861 (4g).
The octanol–water partition coefficients (P) of 4a to 4g were determined using a shake-flask method. Water (100 mL, distilled after milli-Q purification) and n-octanol (100 mL, Sigma-Aldrich, St. Louis, MO, USA, ACS spectrophotometric grade, ≥99%) were shaken together for 24 h to allow saturation of both phases. Stock solutions of the […] compounds (50 μM) were prepared in the aqueous phase and aliquots (1 mL) of each of these stock solutions were then added to an equal volume of the n-octanol phase. The resultant biphasic solutions were mixed for 1 h and then centrifuged (3000× g, 5 min) (Eppendorf Centrifuges 5415R and 5804R) to separate the phases. The concentrations of the complexes in the organic and aqueous phases were then determined using UV absorbance spectroscopy (260 nm). Log P was defined as the logarithm of the ratio of the concentrations of the studied complex in the organic and aqueous phases (Log P = Log {[Ir(org)]/[Ir(aq)]}; values reported are the means of at least two separate determinations).

[2] = Photophysical measurements (emission, quantum yield, lifetime) in CH2Cl2; assay type: physicochemical; settings: CH2Cl2, 298 K, references POPOP and quinine sulfate
Source text: All complexes have been photophysically investigated at standard pressure in CH2Cl2 at 298 K. The absorption spectra of complexes 4a to 4g in CH2Cl2 at 298 K are shown in Figure 7. The strong absorption bands below 300 nm correspond to spin-allowed ^1π→π* electronic ligand-centered (LC) transitions. The structureless bands at 300–360 nm are attributed to ppy-to-ppy ^1π→π* […] charge transfer (LLCT) and Ir-to-ppy metal-to-ligand charge transfer (MLCT) transitions. The lowest-lying bands in the visible region can be assigned to both singlet and triplet MLCT transitions. No significant difference in the absorption spectra of complexes 4a to 4g can be found in the CH2Cl2 solution.
The luminescence spectra of complexes 4a to 4f in CH2Cl2 at 298 K are shown in Figure 8 and their photophysical data are summarized in Table 1.
The relative emission quantum yields (ΦPL) of these complexes in CH2Cl2 at room temperature were measured by using POPOP and quinine sulfate in 1 N H2SO4 as standard references (ΦPL = 97% and ΦPL = 54%, respectively). […] In addition, the excited-state lifetimes of complexes 4a to 4d are in the range of 166.4–190.7 ns, indicating the phosphorescence nature of the emissions.
UV/Vis absorption spectra were recorded at RT on solutions contained in quartz cuvettes (optical pathlength 1 cm, Hellma® (HELLMA, Müllheim, Germany)) with a PerkinElmer® (PerkinElmer, Waltham, MA, USA) UV/VIS/NIR spectrophotometer Lambda 950 and a PerkinElmer® detector UV/VIS/NIR Accessory 2D Detector Module.
Fluorescence and phosphorescence emission spectra were obtained with a HORIBA JOBIN YVON (Bensheim, Germany) fluromax-4 and spectrofluorometer.
Luminescence quantum yields were measured according to the method of Demas and Crosby, on solution samples at RT. The quantum yield is defined as: ΦS=ΦR*As/Ar* ηs/ηr^2^2 where ΦS is the quantum yield of the sample, ΦR is the known quantum yield of the reference standard at the area subtended by the emission band (on a wavelength scale) and η is the refractive index of the solvent used for the preparation of the solution. As (related to the sample) and Ar (related to the reference) must be excitation wavelength. Different standards were selected depending on the spectral region of the interest: POPOP in hexane (Φ = 97%) and QUININNE in water (Φ = 54%).
Fluorescence lifetime measurements were performed by an Edinburgh FLS920 spectrofluorometer equipped with a TCC900 card for data acquisition in time-correlated single-photon counting experiments (0.5 ns time resolution) with a D2 lamp and an LDH-P-C-405 pulsed diode laser. The estimated experimental error was 2 nm on the band maximum (5% on the lifetime, 10% on the fluorescence quantum yield).

MCF7/FasR cells = assay: Cell death with or without pan-caspase inhibitor z-VAD-fmk, MTT; assay type: cell-based, human; settings: 10 µM z-VAD-fmk, MCF7/FasR and MCF7/FasR/Bcl-xL, 72 h
Source text: To determine the mechanism of cell death, we used MCF7 cells transfected to express the human Fas receptor (FasR) or doubly transfected to express the human Fas receptor and human Bcl-xL [75]. Since MCF7 cells express the TNF receptor endogenously, this allowed the study of both Fas- and TNFα-mediated apoptosis in the same cell model to assess whether cell death was dependent on the Bcl-2 family of mitochondrial proteins such as Bcl-xL. […] This is consistent with findings that death receptors such as FasR and TNFR can mediate apoptosis through both the extrinsic pathway (mitochondria-independent by directly activating executioner caspases via upstream caspase-8) and the intrinsic (mitochondrial) pathway controlled by the Bcl-2 family of proteins.
We next evaluated the effect of the pan-caspase inhibitor z-VAD-fmk on caspase signaling. As expected, the treatment with z-VAD-fmk rendered MCF7/FasR cells resistant to TNFα-induced PARP and caspase-7 processing (Figure 14A) and to the loss of cell viability (Figure 14B).
A tetrazolium-based MTT reagent (3-(4,5-dimethylthiazol-2-yl)-2,5-diphenyltetrazolium bromide) was used to determine cell viability, as previously described. After 72 h of treatment at 37 °C and 5% CO2, cells were incubated with 25 μL MTT solution (5 mg/mL; Sigma-Aldrich) for 4 h. After solubilization with 500 μL of lysis buffer (DMSO), formazan was quantified by spectrophotometry with a microplate reader at 570 nm absorbance (ClarioSTAR, BMG LabTech, Champigny-sur-Marne, France). […] All results were calculated from data obtained in at least three independent experiments.
Figure 11 Bcl-xL and z-VAD-fmk inhibited by Fas- or TNFα-induced cell death in MCF7 cells. […] Cell death was assessed by MTT assay. […]
Figure 14 Evaluation of apoptotic biomarkers. […] (B) Cell viability was evaluated in duplicate samples. Data are expressed as percent (%) of untreated cells and are the means of 3 independent experiments (***, p < 0.0001, NS, not significant).

NIH-3T3 fibroblasts = assay: MTT cell viability, 72 h, dark or 458 nm irradiation; assay type: cell-based, murine; settings: for GI50: 72 h, MTT
Procedure: (§6) For all biology experiments, the compounds were solubilized in DMSO to reach a final fixed concentration equal to 0.1% v/v to avoid cytotoxicity caused by DMSO [89]. The results are normalized to controls (0.1% v/v DMSO). Depending on the cell type, approximatively 1000 to 10,000 cells/cm^2 were seeded in 48-well plates for MTT, ATP and GSH assays and 60 mm Petri dishes for Western blots. Cells were allowed to attach overnight and then incubated for 4 h with the different complexes (in the dark), then irradiated for 10 min, followed by an incubation in the dark up to 72 h.
(§7) Irradiation was conducted using an in-house device: a series of blue light LEDs selected according to the absorption spectra of the compounds at a 458 nm wavelength with an emitted power of 9.6 watts. The absorbed energy, or irradiance, was measured at 458 nm with a Thorlabs Optical Power Meter PM100A at 5 and 10 cm distance between the cell layer and the light source and expressed as mW/cm^2.
(§8) A tetrazolium-based MTT reagent (3-(4,5-dimethylthiazol-2-yl)-2,5-diphenyltetrazolium bromide) was used to determine cell viability, as previously described. After 72 h of treatment at 37 °C and 5% CO2, cells were incubated with 25 μL MTT solution (5 mg/mL; Sigma-Aldrich) for 4 h. After solubilization with 500 μL of lysis buffer (DMSO), formazan was quantified by spectrophotometry with a microplate reader at 570 nm absorbance (ClarioSTAR, BMG LabTech, Champigny-sur-Marne, France). GI50 values corresponding to the concentration that caused 50% inhibition of cell proliferation were calculated from dose–response curves obtained by nonlinear regression analysis. All results were calculated from data obtained in at least three independent experiments.

T24 bladder cancer cells = assay: as above; assay type: cell-based, human; settings: for GI50: 72 h, MTT
Procedure: as §6, §7, §8

[3] = tested on: PC-3 prostate cancer cells; assay: as above; assay type: cell-based, human; settings: for GI50: 72 h, MTT
Procedure: as §6, §7, §8

[4] = GI50 non-irradiated / GI50 irradiated

SMILES | GI50 (NIH3T3) [µM] | GI50 (PC-3) [µM] | SI (PC-3) (PC-3) | GI50 (T24) [µM] | SI (T24) (T24) | Log P [1] | ΦPL emission quantum yield [2] [%] | further results
CC(C)C[n+]1ccn2[c]1[Ir-3]13([c]4ccccc4-c4cccc[n+]41)([c]1ccccc1-c1cccc[n+]13)[c]1n(cc[n+]1CC(C)C)CC2.F[P-](F)(F)(F)(F)F [Complex 4f] | 4.1 | 0.91 | 4.5 | 0.91 | 4.5 | 0.519 | 0.2 | 
COC(=O)C[C@H](NC(=O)[C@H](C)NC(=O)[C@@H](NC(=O)OCc1ccccc1)C(C)C)C(=O)CF [z-VAD-fmk, reference compound] (Cbz-Val-Ala-Asp(OMe)-CH2F) |  |  |  |  |  |  |  | effect on cell death induced by Fas antibody and TNFα (MCF7/FasR cells): completely abolished cell death
c1cc[c]2c(c1)-c1cccc[n+]1[Ir-3]213([Cl+][Ir-3]24([Cl+]1)([c]1ccccc1-c1cccc[n+]12)[c]1ccccc1-c1cccc[n+]14)[c]1ccccc1-c1cccc[n+]13 [[IrCl(ppy)2]2, reference compound] | > 20 | > 20 | > 1 | 14.8 | > 1.4 |  |  | GI50 (NIH-3T3 fibroblasts; 458 nm irradiation 10 min, read-out: GI50 NIH-3T3 Blue): 14 µM; PI NIH-3T3 (NIH-3T3 fibroblasts; [4]): 2.9; GI50 (NIH-3T3 fibroblasts; dark, read-out: GI50 NIH-3T3 Dark): 40 µM; GI50 (T24 bladder cancer cells; 458 nm irradiation 10 min, read-out: GI50 T24 Blue): 22 µM; PI T24 (T24 bladder cancer cells; [4]): 1.2; SI vs NIH, T24 Blue (T24 bladder cancer cells; blue light, GI50 NIH-3T3 / GI50 T24): 0.7; GI50 (T24 bladder cancer cells; dark, read-out: GI50 T24 Dark): 26 µM; SI vs NIH, T24 Dark (T24 bladder cancer cells; dark, GI50 NIH-3T3 / GI50 T24): 1.5; GI50 ([3]; 458 nm irradiation 10 min, read-out: GI50 PC-3 Blue): 14 µM; PI PC-3 [3, 4]: 2.1; SI vs NIH, PC-3 Blue ([3]; blue light, GI50 NIH-3T3 / GI50 PC-3): 1.0; GI50 ([3]; dark, read-out: GI50 PC-3 Dark): 29 µM; SI vs NIH, PC-3 Dark ([3]; dark, GI50 NIH-3T3 / GI50 PC-3): 1.4
F[P-](F)(F)(F)(F)F.c1ccc(C[n+]2ccn3[c]2[Ir-3]24([c]5ccccc5-c5cccc[n+]52)([c]2ccccc2-c2cccc[n+]24)[c]2n(cc[n+]2Cc2ccccc2)CC3)cc1 [Complex 4e] | 2.5 | 0.25 | 10.0 | 0.29 | 8.6 | 0.847 | 0.2 | 
